# Entries after “also recorded” stand apart in the source; their conditions may differ.
# System: cerebellar neurons
# Test: Neurite outgrowth on L1-Fc substrate in the presence of soluble MAG-Fc chimeras (FIG. 3)
# Assay type: cell-based
# Details: soluble protein 25 μg/ml, 18 hours, compared to control chimera
# Method: FIG. 3 Inhibition of neurite outgrowth from cerebellar neurons by MAG-Fc Derivatives Cerebellar neurons were isolated (Example 1) and plated onto a growth promoting substrate of L1 protein (Example 4). A control MUC-Fc fusion (clear bar), wild-type MAG-Fc (striped bar) and MAG-Fc derivatives having point mutations in MAG Ig-like domains 4 or 5 (grey bars) were constructed (Example 4) and added in soluble form to neurons (25 μg/ml). After 18 hours, cultures were fixed and stained for GAP-43 antigen. Neurite length was measured and the average length was calculated for 180-200 neurons (+/−SEM).
# Individual wells of an eight-chamber tissue culture plastic slide (Lab-Tek, Nuc. Inc.) were incubated with 0.3 nil of 16.6 μg/ml poly-1-lysine in sterile water for at least one hour under sterile conditions. Each well was washed twice with 400 μl of a 0.1M sodium bicarbonate solution, pH 9.6, and then received 0.3 ml of 0.1M sodium bicarbonate solution, pH 9.6, containing 15 μg/ml goat anti-human IgG (Fc-specific) monoclonal antibody (Sigma). The wells were incubated for 2 hours (h) at 37° C., and washed three times with 0.4 ml of ice-cold DMEM. Each well then received 0.3 nil of DMEM containing 40 μg/ml of L1-Fc and was incubated for 2-4 h at 37° C. The welts were washed twice DMEM.
# Cerebellar neurons (post-natal days 2-7) were dissociated by trypsinization as described in Example 1, except that the dissociated neurons were resuspended in 5 ml of SATO medium containing 2% dialyzed FBS. To an individual well coated with a monolayer of L1-Fc as described above, 5.0×10^4 cerebellar neurons were added, followed by addition of one of the mutant MAG-Fc or MUC18-Fc chimeric soluble protein described above at a concentration of 25 μg/ml. Neurons were cultured for 18 hours at 37° C., and then fixed and stained for GAP43 essentially as described in Example 2. Neurite length was measured for 180-200 neurons.
row,Molecule,inhibition of neurite outgrowth (in words)
1,"MAG(L346D)-Fc: murine MAG-Fc with point mutation L346D, Ig domain 4 (protein, UniProt P20917 20-516, looked up, variant L346D, extracellular domain Fc fusion) extracellular domain: GHWGAWMPSTISAFEGTCVSIPCRFDFPDELRPAVVHGVWYFNSPYPKNYPPVVFKSRTQVVHESFQGRSRLLGDLGLRNCTLLLSTLSPELGGKYYFRGDLGGYNQYTFSEHSVLDIVNTPNIVVPPEVVAGTEVEVSCMVPDNCPELRPELSWLGHEGLGEPTVLGRLREDEGTWVQVSLLHFVPTREANGHRLGCQAAFPNTTLQFEGYASLDVKYPPVIVEMNSSVEAIEGSHVSLLCGADSNPPPLLTWMRDGMVLREAVAKSLYLDLEEVTPGEDGVYACLAENAYGQDNRTVELSVMYAPWKPTVNGTVVAVEGETVSIDCSTQSNPDPILTIFKEKQILATVIYESQLQLELPAVTPEDDGEYWCVAENQYGQRATAFNLSVEFAPIILLESHCAAARDTVQCLCVVKSNPEPSVAFELPSRNVTVNETEREFVYSERSGLLLTSILTIRGQAQAPPRVICTSRNLYGTQSLELPFQGAHRLMWAKIGP",inhibited neurite outgrowth as effectively as MAG-Fc
2,"MAG(E410K)-Fc: murine MAG-Fc with point mutation E410K, Ig domain 4/5 (protein, UniProt P20917 20-516, looked up, variant E410K, extracellular domain Fc fusion) extracellular domain: GHWGAWMPSTISAFEGTCVSIPCRFDFPDELRPAVVHGVWYFNSPYPKNYPPVVFKSRTQVVHESFQGRSRLLGDLGLRNCTLLLSTLSPELGGKYYFRGDLGGYNQYTFSEHSVLDIVNTPNIVVPPEVVAGTEVEVSCMVPDNCPELRPELSWLGHEGLGEPTVLGRLREDEGTWVQVSLLHFVPTREANGHRLGCQAAFPNTTLQFEGYASLDVKYPPVIVEMNSSVEAIEGSHVSLLCGADSNPPPLLTWMRDGMVLREAVAKSLYLDLEEVTPGEDGVYACLAENAYGQDNRTVELSVMYAPWKPTVNGTVVAVEGETVSILCSTQSNPDPILTIFKEKQILATVIYESQLQLELPAVTPEDDGEYWCVAENQYGQRATAFNLSVKFAPIILLESHCAAARDTVQCLCVVKSNPEPSVAFELPSRNVTVNETEREFVYSERSGLLLTSILTIRGQAQAPPRVICTSRNLYGTQSLELPFQGAHRLMWAKIGP",inhibited neurite outgrowth as effectively as MAG-Fc

# System: wild-type MAG-expressing cells
# Test: Neurite outgrowth on MAG-expressing cells in the presence of MAG, Nogo and OMgp peptides (Example 6)
# Assay type: cell-based
# Details: tested as described in Example 5; example written in present tense
# Source text: Peptides corresponding to amino acid residues […] of MAG (MAG(343-371)), amino acid residues 363-397 (MAG(363-397)), amino acid residues 394-428 (MAG(394-428)), amino acid residues 422-451 (MAG(422-451)), amino acid residues 442-471 (MAG(442-471)), and amino acid residues 461-498 (MAG(461-498)) were synthesized. Peptides were obtained from SynPep Corp. (Dublin, Calif.). MAG(343-371), MAG(363-397) and MAG(394-428) correspond to amino acid residues from the Ig4 domain of MAG. MAG(422-451), MAG(442-471) and MAG(461-498) corresponds to amino acid residues from the Ig5 domain of MAG. […] Results are shown in FIG. 4 (and are represented as number of neurons with processes longer than 2-times the cell diameter). […] Results are shown in FIG. 5 (and are represented as average neurite length for 180-200 neurons).
# Peptides corresponding to MAG amino acid residues 437-441 (M437), 446-455 (M446), 450-455 (M450), 466-471 (M466); and 472-477 (M472) are constructed and tested in neurite outgrowth assays as described in Example 5. (See peptides in FIG. 18).
# Peptides corresponding to Nogo-66 amino acid residues 13-17 (N13), 22-31(N22-1), 22-34 (N22-2), 26-31 (N26-1); 26-34 (N26-2); 9-33 (N-9-1); 9-34 (N-9-2); 38-62 (N38); 42-47 (N42); and 48-53 (N48) are also constructed and tested in neurite outgrowth assays as described in Example 5.
# Peptides corresponding to OMgp amino acid residues 206-210 (O206), 215-224 (O215), 219-224 (O219), 202-226 (O202); 231-255 (O231), 235-240 (O235) 241-246 (O241) are constructed and tested in neurite outgrowth assays as described in Example 5.
row,Molecule,effect on the ability of wild-type MAG-expressing cells to inhibit neurite outgrowth
1,O202: peptide of OMgp amino acid residues 202-226 (SEQ ID NO: 38) (KFTFIPEQSFDQLLQLQEITLHNNR),reduce the ability of the wild-type MAG-expressing cells to inhibit neurite outgrowth
2,M466: peptide of MAG amino acid residues 466-471 (SEQ ID NO: 21) (SGLLLT),reduce the ability of the wild-type MAG-expressing cells to inhibit neurite outgrowth
3,"N42: peptide of Nogo-66 amino acid residues 42-47 (EEDEDE; Nogo-66; UniProt Q9NQC3 42-47, looked up, fragment)",reduce the ability of wild-type MAG-expressing cells to inhibit neurite outgrowth; also recorded: reduce the ability of the wild-type MAG-expressing cells to inhibit neurite outgrowth
4,"N48: peptide of Nogo-66 amino acid residues 48-53 (DLEELE; Nogo-66; UniProt Q9NQC3 48-53, looked up, fragment)",reduce the ability of wild-type MAG-expressing cells to inhibit neurite outgrowth; also recorded: reduce the ability of the wild-type MAG-expressing cells to inhibit neurite outgrowth
5,O219: peptide of OMgp amino acid residues 219-224 (SEQ ID NO: 37) (EITLHN),reduce the ability of the wild-type MAG-expressing cells to inhibit neurite outgrowth
6,M437: peptide of MAG amino acid residues 437-441 (SEQ ID NO: 17) (NPEPS),reduce the ability of the wild-type MAG-expressing cells to inhibit neurite outgrowth
7,"N-9-1: peptide of Nogo-66 amino acid residues 9-33 (LVSSSDSPPRPQPAFKYQFVREPED; Nogo-66; UniProt Q9NQC3 9-33, looked up, fragment)",reduce the ability of wild-type MAG-expressing cells to inhibit neurite outgrowth; also recorded: reduce the ability of the wild-type MAG-expressing cells to inhibit neurite outgrowth
8,"N-9-2: peptide of Nogo-66 amino acid residues 9-34 (LVSSSDSPPRPQPAFKYQFVREPEDE; Nogo-66; UniProt Q9NQC3 9-34, looked up, fragment)",reduce the ability of wild-type MAG-expressing cells to inhibit neurite outgrowth; also recorded: reduce the ability of the wild-type MAG-expressing cells to inhibit neurite outgrowth
9,M450: peptide of MAG amino acid residues 450-455 (SEQ ID NO: 19) (NVTVNE),reduce the ability of the wild-type MAG-expressing cells to inhibit neurite outgrowth
10,M472: peptide of MAG amino acid residues 472-477 (SEQ ID NO: 22) (SILTLR),reduce the ability of the wild-type MAG-expressing cells to inhibit neurite outgrowth
11,O241: peptide of OMgp amino acid residues 241-246 (SEQ ID NO: 41) (WVMETK),reduce the ability of the wild-type MAG-expressing cells to inhibit neurite outgrowth
12,O231: peptide of OMgp amino acid residues 231-255 (SEQ ID NO: 39) (HKQNITYLLKWVMETKAHVIGTPCS),reduce the ability of the wild-type MAG-expressing cells to inhibit neurite outgrowth
13,O206: peptide of OMgp amino acid residues 206-210 (SEQ ID NO: 35) (IPEQS),reduce the ability of the wild-type MAG-expressing cells to inhibit neurite outgrowth
14,M446: peptide of MAG amino acid residues 446-455 (SEQ ID NO: 18) (LPSRNVTVNE),reduce the ability of the wild-type MAG-expressing cells to inhibit neurite outgrowth
15,O235: peptide of OMgp amino acid residues 235-240 (SEQ ID NO: 40) (ITYLLK),reduce the ability of the wild-type MAG-expressing cells to inhibit neurite outgrowth
16,N38: peptide of Nogo-66 amino acid residues 38-62 (SEQ ID NO: 32) (SNSALGHVNSTIKELRRLFLVDDLV),reduce the ability of wild-type MAG-expressing cells to inhibit neurite outgrowth; also recorded: reduce the ability of the wild-type MAG-expressing cells to inhibit neurite outgrowth
17,O215: peptide of OMgp amino acid residues 215-224 (SEQ ID NO: 36) (LQLQEITLHN),reduce the ability of the wild-type MAG-expressing cells to inhibit neurite outgrowth

# Reference: US8163700B2, “Inhibitors of myelin-associated glycoprotein (MAG) activity for regulating neural growth and regeneration” (Research Foundation of City University of New York, priority 2002, dated 2012)
